Experimental data from patent publication US8715751B2, “Artemisinins in the clinical and veterinary management of kinetoplastid infections” (The United States of America as Represented by the …, priority 2006, dated 2014).
Where “and” joins values, the source holds several entries; their conditions need not be identical. Equal values may be shown once. Read-outs that look alike come from different tables or passages of the source.

Legend:
[1] = cited from earlier work
[2] = test system: Leishmania major lesions; experiment: In vivo testing in BALB/c mice, Leishmania footpad lesion; conditions: for Lesion Size (mm) Post-Rx: daily for one week, 9 days after commencement; for Lesion Size (mm) Pre-Rx: prior to dosing
Procedure: One foot pad was infected with infective Leishmania promastigotes while the other foot served as control. After the infected foot pads had developed lesions, mice with similar size lesions were selected and treated daily with test article for one week. The first doses were administered on 18 May. Lesions were measured with calipers prior to dosing and 9 days after commencement of treatment (27 May) and the difference in lesion size calculated. The thickness of the uninfected footpad was also measured. […] Test articles were administered orally and intra-peritoneally (ip).

[3] = test system: Leishmania major ATCC 50122 amastigotes; experiment: In vitro amastigote/macrophage culture drug screening; format: cell-based; conditions: for effectiveness ranking of the compounds in the screen: 2.0 μM initial screen
Procedure: Preliminary drug screening (in vitro amastigote/macrophage culture) of artemisinin and artelinic acid compounds.
The four compounds were dissolved in the respective solvents as indicated in the table below (Table 1) and were tested against Leishmania major ATCC 50122 amastigotes in vitro in a mouse macrophage system. A positive (Pentostam) and negative (culture medium) controls were set for each plate. Compounds were tested at 2.0 μM in a total volume of 2-0 mls. Drug was added to well every 4 hours×1, 2 and 3, and results shown in (Table 2) below.
Because of the high potency of Artelinic acid relative to the other compounds, the experiments were repeated with different doses of Artelinic acid alone.

[4] = test system: Leishmania major ATCC 50122 amastigotes; experiment: as above; format: cell-based; conditions: added once
[5] = test system: Trypanosoma brucei brucei; experiment: In vitro trypanocidal assay (microscopic viability, bloodstream forms); format: cell-based; conditions: 1 μg/mL, 24-hr incubation, read-out: growth inhibition against T. b. brucei
Procedure: Culture suspension of Trypanosoma brucei brucei (T. b. brucei) was obtained from Research Institute for Microbial Diseases (Osaka University, Japan). Trypanosomes were subcultured in appropriate medium (see 5.1.2) as frequently as needed to avoid overgrowth, and maintained in culture flasks at 37° C. in a humidified, 5% CO2 atmosphere incubator. In addition, parasite culture stabilates were prepared by suspending trypanosomes centrifugation (1500 rpm, room temperature, 3 min) pellet in 1 mL of a mixture of […] (v/v) trypanosome dilution buffer and 33% (v/v) glycerol. The whole volume was transferred into cryotubes and stored at −80° C. until further needed. […]
All fractions obtained stepwise in the course of the separation process of the plant crude extracts were assessed for their in vitro activity against T. b. brucei. […] Trypanosomes were harvested at late exponential growth level, counted with a hemocytometer (Erma Tokyo 7059), and resuspended by appropriate dilution in culture medium for achieving a final density of 1×10^4 cells/mL. […] After successively 24, 48, and 72 hr-incubations, parasites viability was determined by observing directly inside the wells of the microculture plate with an optical microscope (Injectoscope model IMT-YF/Olympus). […]

[6] = test system: HeLa S3 cells; experiment: Cytotoxicity assay in vitro (MTT); format: cell-based, human; conditions: 1 μg/mL
Procedure: An axenic culture of human carcinoma HeLa S3 cell line was established in Dulbecco's Modified Eagle's Medium (D-MEM, Sigma) supplemented with 4500 mg glucose/L, L-glutamine, NaHCO3, and pyridoxine HCl, to which 10% heat-inactivated (56° C., 40 min) fetal bovine serum (FBS, MultiSer) was added. Plant chromatographic fractions, which have shown potent trypanocidal activity in vitro, were selected for cytotoxicity assay. Previously dissolved in neat DMSO (Wako-for biochemical assay), an aliquot of 10 μL of each test sample was diluted in 490 μL of the cell culture medium with the intent of decreasing the DMSO concentration to 2% in the medium. HeLa S3 cells maintained in culture dish (Sumilon) were washed with Dulbecco's phosphate saline buffer (-) [DPBS (-), Nissui Pharmaceutical Co., Ltd] after syphonating the culture medium. Adherent cells were released from their dish bottom substrate by adding trypsin (Nacalai) and gently tapping with hand on the round lateral side of the dish. […] After shaking ([…]) for 3-5 min, the absorbance in each well was measured at 540 nm in a microtiter plate reader (ImmunoMini NJ-2300). The percentage of cytotoxicity (growth inhibition level) was calculated as (A-B)/A×100, where A is the mean optical density of negative control wells and B is the mean optical density of test sample wells.

**Q.** With N=C(N)c1ccc(OCCCCCOc2ccc(C(=N)N)cc2)cc1 [Pentamidine] as the compound, how does the oral bioavailability [1] read?
**A.** The oral bioavailability was “no oral bioavailability”.

**Q.** For Cc1ccc(C(=O)Nc2ccc(S(=O)(=O)O)c3cc(S(=O)(=O)O)cc(S(=O)(=O)O)c23)cc1NC(=O)c1cccc(NC(=O)Nc2cccc(C(=O)Nc3cc(C(=O)Nc4ccc(S(=O)(=O)O)c5cc(S(=O)(=O)O)cc(S(=O)(=O)O)c45)ccc3C)c2)c1 [Suramin], which oral bioavailability [1] is on record?
**A.** Its oral bioavailability is “no oral bioavailability”.

**Q.** For O.O.O.O.O.O.O.O.O.O=C([O-])[C@@H]1[O][Sb](=[O])([O][Sb]2(=[O])[O][C@H]([C@H](O)CO)[C@H](O)[C@H](C(=O)[O-])[O]2)[O][C@H]([C@H](O)CO)[C@@H]1O.[Na+].[Na+].[Na+] (stereo partly drawn) [Pentostam], which “Lesion Size (mm) Post-Rx” value ([2]; 20 mg/Kg, IP) is on record?
**A.** Its value is 2.3 mm and 3.0 mm and 2.7 mm.

**Q.** What about the “Lesion Size (mm) Pre-Rx” value ([2]; 20 mg/Kg, IP) of the same compound?
**A.** Its value is 2.8 mm and 2.6 mm.

**Q.** And the “Lesion Size (mm) Post-Rx” value ([2]; 20 mg/Kg, Oral)?
**A.** The value was 2.6 mm and 2.9 mm.

**Q.** What about the “Lesion Size (mm) Pre-Rx” value ([2]; 20 mg/Kg, Oral) of the same compound?
**A.** Its value is 2.8 mm and 2.7 mm.

**Q.** Which “killing of / potency against Leishmania parasites within mouse macrophages in vitro” value [3] does the source give for C[C@H]1[C@@H](OCc2ccc(C(=O)O)cc2)O[C@@H]2O[C@@]3(C)CC[C@H]4[C@H](C)CC[C@@H]1[C@@]24OO3 [Artelinic acid, artelinic acid] here?
**A.** The value was “marked potency”.

**Q.** And the “effectiveness ranking of the compounds in the screen” value (“effectiveness ranking” below) [3]?
**A.** Its value is “Artelinic acid>>>Dihydroartemisinin>Beta Arteether>>Artemisinin”.

**Q.** What about the “observation on Leishmania amastigotes” value ([3]; 2.0 μM, added once) of the same compound?
**A.** The value was “All the leishmania amastigotes were cleared”.

**Q.** What about the “clearance of amastigotes in macrophages” value ([3]; 2 uM, initial screen) of the same compound?
**A.** The value was “cleared all of the amastigates in macrophages”.

**Q.** What about the “lowest concentration at which killing of intracellular amastigotes was noted” value ([3]; dose response, added once) of the same compound?
**A.** Its value is 0.1 µM.

**Q.** What about the “lowest dose at which clearance was complete” value ([3]; dose response, added once) of the same compound?
**A.** The value was 0.25 µM.

**Q.** And the “Lesion Size (mm) Post-Rx” value ([2]; 4 ul/Kg, IP)?
**A.** Its value is 2.1 mm and 2.2 mm and 2.0 mm.

**Q.** And the “Lesion Size (mm) Pre-Rx” value ([2]; 4 ul/Kg, IP)?
**A.** The value was 2.6 mm and 2.5 mm.

**Q.** And the “Lesion Size (mm) Pre-Rx” value ([2]; 4 ul/Kg, Oral)?
**A.** Its value is 2.7 mm and 2.8 mm.

**Q.** And the “effectiveness compared with Pentostam, the positive control” value ([2]; at the doses and route of administration tested)?
**A.** The value was “much more effective than Pentostam”.

**Q.** What about the “effect on size of Leishmania major footpad lesions” value ([2]; given orally or ip for one week) of the same compound?
**A.** The value was “decrease in the size of Leishmania major lesions”.

**Q.** What about the “observation on Leishmania amastigotes” value ([4]; 0.25 μM) of the same compound?
**A.** The value was “Cleared all the Leishmania amastigotes”.

**Q.** What about the “observation on Leishmania amastigotes” value ([4]; 0.5 μM) of the same compound?
**A.** Its value is “Cleared all the parasites in the cytoplasm”.

**Q.** What about the “observation on Leishmania amastigotes” value ([4]; 1.0 μM) of the same compound?
**A.** The value was “All the amastigotes were cleared from the macrophages”.

**Q.** With CCO[C@H]1O[C@@H]2O[C@@]3(C)CC[C@H]4[C@H](C)CC[C@@H]([C@H]1C)[C@@]24OO3 [Beta Arteether, Beta-Arteether] as the compound, how does the “effectiveness ranking” value [3] read?
**A.** Its value is “Artelinic acid>>>Dihydroartemisinin>Beta Arteether>>Artemisinin”.

**Q.** For C[C@@H]1CC[C@H]2[C@@H](C)C(=O)O[C@@H]3O[C@@]4(C)CC[C@@H]1[C@]32OO4 [Artemisinin, (+)-artemisinin], which inhibition at 1 µg/mL [5] is on record?
**A.** The inhibition at 1 µg/mL was ≥ 80%.

**Q.** What about the “cytotoxic level in vitro” value [6] of the same compound?
**A.** Its value is 17.3%.

**Q.** What about the “killing of / potency against Leishmania parasites within mouse macrophages in vitro” value [3] of the same compound?
**A.** Its value is “results were duplicated”.

**Q.** What about the “effectiveness ranking” value [3] of the same compound?
**A.** The value was “Artelinic acid>>>Dihydroartemisinin>Beta Arteether>>Artemisinin”.

**Q.** And the parasites per macrophage ([3]; 2.0 μM, compound added q4 h × 1)?
**A.** Its parasites per macrophage is “between 4-7”.

**Q.** With Nc1nc(N)nc(Nc2ccc([As]3SCC(CO)S3)cc2)n1 (stereo not drawn) [Melarsoprol] as the compound, how does the oral bioavailability ([1]; po) read?
**A.** Its oral bioavailability is “no oral bioavailability”.
